Laboratory results: patent publication US6458778B1, “Estradienes” (Wyeth, priority 1997, dated 2002)

What was measured:
Immature rats = experiment: In vivo uterotropic activity; settings: for Uterine Weight (mg) ± SD: immature rats; for estrogenic activity in vivo (in words): uterine stimulation compared with vehicle
[1] = target: T1, human estrogen receptor (hER-α) (Homo sapiens, UniProt P03372); experiment: Estrogen receptor binding, whole cell test procedure; settings: Ki of 5B estimated
T1 sequence (P03372 1-595): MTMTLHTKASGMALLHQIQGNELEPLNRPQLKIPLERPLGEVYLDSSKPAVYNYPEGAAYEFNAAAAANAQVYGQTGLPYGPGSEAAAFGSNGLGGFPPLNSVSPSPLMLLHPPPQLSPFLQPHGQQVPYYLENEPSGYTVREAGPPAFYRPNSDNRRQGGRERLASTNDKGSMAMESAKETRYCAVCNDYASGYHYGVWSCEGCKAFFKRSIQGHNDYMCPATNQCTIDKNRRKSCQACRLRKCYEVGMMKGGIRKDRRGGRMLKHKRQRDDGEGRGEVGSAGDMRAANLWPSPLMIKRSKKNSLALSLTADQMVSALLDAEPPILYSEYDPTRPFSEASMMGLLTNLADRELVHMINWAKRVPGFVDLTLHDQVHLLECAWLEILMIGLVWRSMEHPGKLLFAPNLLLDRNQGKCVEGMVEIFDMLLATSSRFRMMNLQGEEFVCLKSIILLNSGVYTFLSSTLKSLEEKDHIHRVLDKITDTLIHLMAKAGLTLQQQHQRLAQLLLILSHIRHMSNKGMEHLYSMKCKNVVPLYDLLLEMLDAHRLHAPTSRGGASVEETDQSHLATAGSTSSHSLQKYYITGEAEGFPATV

Row | Compound | Uterine Weight (mg) ± SD (Immature rats; 1 μg, three days S.C.) | Uterine Weight (mg) ± SD (Immature rats; 10 μg, three days S.C.) | Uterine Weight (mg) ± SD (Immature rats; 100 μg, three days S.C.) | Uterine Weight (mg) ± SD (Immature rats; 500 μg, three days S.C.) | estrogenic activity in vivo (in words) (Immature rats) | further results
1 | C[C@]12CC[C@H]3C(=CCC4=C3CC[C@@H](O)C4)[C@@H]1CCC2=O [5A, estra-5(10),7-dien-3α-ol-17-one] | 28.7 ± 2.7 mg | 33.3 ± 4.4 mg | 66.5 ± 4.7 mg | 78.9 ± 13.6 mg | significant estrogenic activity | estimated EC50 compared with 5B (Immature rats; in words, relative to approximately 30 μg/rat or 0.6 mg/kg for 5B): somewhat lower
2 | C[C@]12CC[C@H]3C(=CCC4=C3CC[C@H](O)C4)[C@@H]1CCC2=O [5B, estra-5(10),7-dien-3β-ol-17-one] | 31.7 ± 6.6 mg | 43.5 ± 6.9 mg | 79.7 ± 5.8 mg | 82.6 ± 8.6 mg | significant estrogenic activity | Uterine Weight (mg) ± SD (Immature rats; 0.1 μg, three days S.C.): 34.1 ± 6.2 mg
3 | C#C[C@]1(O)CC[C@H]2[C@@H]3CCc4cc(O)ccc4[C@H]3CC[C@@]21C [Ethinyl Estradiol, ethinyl estradiol, reference compound] |  |  |  |  |  | Uterine Weight (mg) ± SD (Immature rats; 0.5 μg, three days, positive control): 101.2 ± 2.8 mg
4 | C[C@]12CCc3c(ccc4cc(O)ccc34)[C@@H]1CCC2=O [equilenen] |  |  |  |  |  | Ki [1]: 375 nM
5 | C[C@]12CC[C@@H]3c4ccc(O)cc4CC[C@H]3[C@@H]1CCC2=O [estrone, reference compound] |  |  |  |  |  | EC50 estimated (Immature rats; in similar test procedures): 0.2 mg/kg
